Assay results taken from patent US12134640B2, “Polypeptides and medical uses thereof” (priority 2016, dated 2024).
No end group written: not given here.

Experiments:
[1] = Membrane permeabilization assay (carboxyfluorescein efflux from liposomes); conditions: 10 mM Tris pH 7.4, 37° C., 45 min
Procedure: Dry lipid films of E. coli polar lipid extract were formed in round-bottom flask walls by dissolving lipids in chloroform, followed by evaporation under N2-flow and subsequently placed in vacuum overnight. Lipid films were re-suspended either by 30 min stirring (E. coli), at 55° C. in an aqueous solution of 100 mM 5(6)-carboxyfluorescein in 10 mM Tris (set to pH 7.4 at 37° C.). Suspensions were then vortexed followed by repeated extrusion through a 100 nm polycarbonate membrane mounted in a LipoFast mini-extruder (Avanti Polar Lipids) in order to reduce multilamellar structures and polydispersity. Un-trapped carboxyfluorescein was removed by gel filtration on Sephadex PD-10 columns (GE Healthcare, Little Chalfont, UK). Membrane permeability was measured by monitoring carboxyfluorescein efflux from the liposomes to the external low concentration environment, resulting in loss of self-quenching and an increased fluorescence signal with excitation and emission wavelengths of 492 and 517 nm, respectively. Fluorescence was measured with a Varioskan Flash Multimode Reader (Thermo Fisher Scientific, Waltham, MA) in black Nunc Delta Surface 96-well plate (Thermo Fisher Scientific, Roskilde, DK). […] The effects of each peptide concentration on the liposome systems were monitored for 45 min, at which point the initial leakage had largely subsided. […]

[2] = test system: human monocytic THP-1 cells; assay: Lactate dehydrogenase (LDH) assay; type: cell-based; conditions: at 50 μM
Procedure: The cytotoxicity experiments were performed as described previously (41). Briefly, human monocytic THP-1 cells (American Type Culture Collection (ATCC), Manassas, VA) were cultured into 96-well plates using Dulbecco's Modified Eagle's medium (DMEM) (PAA Laboratories) supplemented with 10% fetal calf serum. The medium was removed and the cells were subsequently washed with DMEM. Peptides (1, 5, 10, 20, 50 μM) diluted in DMEM were added in triplicates. The LDH based TOX-7 kit (Sigma-Aldrich) was used according to the manufacturer instructions. The amount of LDH release from dead cells was measured at 450 nm. As a positive control 2% Triton X-100 was used.

P. aeruginosa = type: cell-based, Pseudomonas aeruginosa PAO1; conditions: positive control, 3 μM LL-37
Procedure: (§1) Viable count assay Bacteria were grown to mid-logarithmic phase (OD620≈ 0.4) in THB-medium at 37° C. with 5% CO2. The bacterial solution was subsequently washed and adjusted to 2×10^9 cfu/ml in 10 mM Tris, pH 7.4, containing 5 mM glucose. S. pyogenes, S. aureus, E. coli or P. aeruginosa were then incubated with 2 μM of purified collagen type VI at 37° C. for 2 h. In some experiments S. pyogenes was incubated with recombinant collagen type VI fragments at various concentrations (0.125, 0.25, 0.5, 1.0 and 2.0 μM) for 2 h at 37° C. Bacteria incubated with Tris-HCl pH 7.4 buffer or 3 μM LL-37 (Innovagen, Lund, Sweden) were used as negative and positive controls respectively. To quantify the bactericidal activity, serial dilutions of the incubation mixtures were plated on blood agar plates, followed by incubation at 37° C. overnight, and the number of colony forming units (cfu) were determined. Hundred percent survival was defined as total survival of bacteria in the same buffer and under the same condition in the absence of collagen type VI or recombinant proteins.

S. pyogenes = type: cell-based, Streptococcus pyogenes strain AP1; conditions: positive control, 3 μM LL-37
Procedure: as §1

S. aureus = type: cell-based, Staphylococcus aureus strain 111; conditions: positive control, 3 μM LL-37
Procedure: as §1

E. coli = type: cell-based, Escherichia coli strain 1351; conditions: positive control, 3 μM LL-37
Procedure: as §1

[3] = test system: S. pyogenes, S. aureus, E. coli and P. aeruginosa; assay: Bactericidal assay (viable count), statements on the whole panel; type: cell-based; conditions: salt conditions (150 mM NaCl, pH 7.4)
Procedure: Bacteria were grown to mid-logarithmic phase (OD620≈0.4) in THB medium at 37° C., with 5% CO2. The bacterial solution was subsequently washed and adjusted to 2×10^7 cfu/ml in salt buffer (10 mM Tris-HCl, 150 mM NaCl supplemented with 5 mM glucose; pH 7.4) (both from Sigma-Aldrich). Various concentrations of peptides (0.3, 0.6, 3, 6, 30 and 60 μM) were incubated with bacteria in salt buffer with or without 20% human plasma. Bacteria incubated in only salt buffer with or without plasma were used as negative controls. Samples with LL-37 served as positive controls. The samples were incubated for 2 h at 37° C. with 5% CO2. To quantify the bactericidal activity, serial dilutions of the incubation mixtures were plated on THB agar plates, followed by incubation at 37° C. with 5% CO2 overnight, and the number of cfu were determined. Experiments were performed in triplicate. Hundred percent survival was defined as total survival of bacteria in the same buffer and under the same condition in the absence of peptides.

P. aeruginosa 15159 = assay: Invasive P. aeruginosa infection model, survival; type: in vivo, Female BALB/c mice
Procedure: Animal experiments were performed according to a protocol approved by the Local Ethics Committee at Lund University. Animals were housed under standard conditions of light and temperature and had free access to standard laboratory chow and water. P. aeruginosa 15159 bacteria were grown to mid-exponential phase (A620˜0.5), washed and diluted in PBS to 2×10^8 cfu/ml, and kept on ice until injection. Female BALB/c mice, 8 weeks old, were anesthetized with isoflurane and injected intraperitoneally with 100 μL of the bacterial solution, followed by injection of 100 μL SFV33 or GVR28 peptide (1 mg/mL) after 15 minutes, or with 100 μL PBS alone (control group).

[4] = test system: RAW 264.7 macrophage cells; assay: LPS stimulation of macrophages in vitro (nitrite, Griess reagent); type: cell-based, murine; conditions: LPS 10 ng/ml pre-incubated with peptide, 24 h
Procedure: Murine macrophage-like cells (RAW 264.7; ATCC) were seeded in 96-well plates at 3.5×10^5 cells/well in DMEM (without phenol red, PAA Laboratories) supplemented with 10% fetal calf serum and antibiotic-antimycotic (Invitrogen, Carlsbad, CA). After overnight incubation at 37° C., the cells were washed once with DMEM. LPS (10 ng/ml) was pre-incubated with the peptides for 20 min at room temperature and added to the cells. The cells were subsequently incubated for 24 h at 37° C. Griess reagent (Sigma, St. Louis, MO) was added to culture supernatant in 1:1 ratio followed by 15 min incubation in dark. The absorbance was then measured at 550 nm with a spectrophotometer. The cells with and without LPS stimulation were taken as positive and negative controls for LPS-induction. For the determination of NO production with peptides and LPS treatments, the assay was done in triplicate and the average values were considered for each set. Cells were grown at 37° C. and with 5% CO2 in fully humidified air.

Compound: FYLKTYRSQAPVLDAIRRLRLRGGS (FYL25 peptide) [peptide derived from VWA domain of collagen type VI α3-chain]
- membrane leakage (release of carboxyfluorescein) [1]: highest membrane leakage

Compound: SFVARNTFKRVRNGFLMRKVAVFFSNTPTRASP [SFV33]
- toxicity towards monocytes (LDH release) [2]: exhibited toxicity

Compound: CC[C@H](C)[C@H](NC(=O)[C@H](CCCCN)NC(=O)[C@H](CCC(=O)O)NC(=O)[C@H](CCCCN)NC(=O)[C@H](CO)NC(=O)[C@H](CCCCN)NC(=O)[C@H](CCCNC(=N)N)NC(=O)[C@H](Cc1ccccc1)NC(=O)[C@H](Cc1ccccc1)NC(=O)[C@H](CC(=O)O)NC(=O)CNC(=O)[C@H](CC(C)C)NC(=O)[C@@H](N)CC(C)C)C(=O)NCC(=O)N[C@@H](CCCCN)C(=O)N[C@@H](CCC(=O)O)C(=O)N[C@@H](Cc1ccccc1)C(=O)N[C@@H](CCCCN)C(=O)N[C@@H](CCCNC(=N)N)C(=O)N[C@H](C(=O)N[C@H](C(=O)N[C@@H](CCC(N)=O)C(=O)N[C@@H](CCCNC(=N)N)C(=O)N[C@H](C(=O)N[C@@H](CCCCN)C(=O)N[C@@H](CC(=O)O)C(=O)N[C@@H](Cc1ccccc1)C(=O)N[C@@H](CC(C)C)C(=O)N[C@@H](CCCNC(=N)N)C(=O)N[C@@H](CC(N)=O)C(=O)N[C@@H](CC(C)C)C(=O)N[C@H](C(=O)N1CCC[C@H]1C(=O)N[C@@H](CCCNC(=N)N)C(=O)N[C@H](C(=O)N[C@@H](CCC(=O)O)C(=O)N[C@@H](CO)C(=O)O)[C@@H](C)O)C(C)C)[C@@H](C)CC)C(C)C)[C@@H](C)CC [LL-37]
- killing (P. aeruginosa): ~100%
- killing (S. pyogenes): ~100%
- killing (S. aureus): ~100%
- killing (E. coli): ~100%

Compound: GVRPDGFAHIRDFVSRIVRRLNIGPSKV (GVR28 peptide) [peptide derived from VWA domain of collagen type VI α3-chain]
- antibacterial activity (viable count) [3]: somewhat reduced effects
- survival compared with PBS group (P. aeruginosa 15159; experiment terminated after 29 hours): prolonged survival
- time at which 50% mortalities were observed (P. aeruginosa 15159; mice infected i.p., single dose 100 μL peptide (1 mg/mL) 15 minutes after infection): 24 h
- LPS-induction of nitrite [4]: significantly suppressed the LPS-induction of nitrite
